Where two headings read alike, the source gives them in different places.
System: M. tuberculosis Clinical isolate: S, H, R and E resistant
Assay type: cell-based, Mycobacterium tuberculosis
Conditions: 72 hours

Row | SMILES | % reduction in RLU (0.5 μg/mL) [%] | % reduction in RLU (5 μg/mL) [%] | % reduction in RLU (10 μg/mL) [%]
1 | C=C(NC(=O)C(=C)NC(=O)c1csc(C2=NC3c4csc(n4)C4NC(=O)c5csc(n5)C(C(C)(O)C(C)O)NC(=O)C5CSC(=N5)/C(=C\C)NC(=O)C(C(C)O)NC(=O)c5csc(n5)C3(CC2)NC(=O)C(C)NC(=O)C(=C)NC(=O)C(C)NC(=O)C(C(C)C)NC2C=Cc3c(C(C)O)cc(nc3C2O)C(=O)OC4C)n1)C(N)=O (stereo not drawn) [Compound of Formula I(a)] | 20.88 | 78.11 | 88.42
2 | C=C(NC(=O)c1csc(C2=NC3c4csc(n4)C4NC(=O)c5csc(n5)C(C(C)(O)C(C)O)NC(=O)C5CSC(=N5)/C(=C\C)NC(=O)C(C(C)O)NC(=O)c5csc(n5)C3(CC2)NC(=O)C(C)NC(=O)C(=C)NC(=O)C(C)NC(=O)C(C(C)C)NC2C=Cc3c(C(C)O)cc(nc3C2O)C(=O)OC4C)n1)C(=O)NC(C)C(N)=O (stereo not drawn) [Compound of Formula I(b)] | 5.67 | 70.9 | 83.74

— patent US10501492B2, “Antibiotic compounds” (priority 2009, dated 2019)
